According to a melting point compilation (Tetko et al.; mined from patent text by program, amines drawn as free bases though some values may be those of a salt):

Compared with `O=C(OCc1ccccc1)N1CCC2(CC1)CN(c1ccccc1)C(=O)O2`, `Cc1ccc(C(=O)OC2CCN(Cc3ccccc3)CC2)cc1` is lower in melting point: 100 to 102 °C for the first, 73 to 74 °C for the second.

First: CN1C(=O)n2c(nc3ccccc32)NC12CCCC2
Second: CS(=O)c1ccccc1C1CCCC2(C1)C(=O)Nc1ccccc12 (stereo not given)
The melting point of the first is lower: 180 to 182 °C for the first, 190 to 191 °C for the second.

Compared with `CCCCCC(O)C=Cc1scnc1CCCCCCC(=O)O` (stereo not given), `CC(=O)C(=[N+]=[N-])C(=O)CCCCCCCCCc1ccccc1` is lower in melting point: 73 to 74 °C for the first, 29 to 31 °C for the second.

First: COc1nc(C)cc(C(=O)O)n1
Second: COc1ncc(CS(=O)(=O)CC(=O)O)cc1[N+](=O)[O-]
The melting point of the first is lower: 161 to 163 °C for the first, 183 to 186 °C for the second.

Compared with `CC(=O)N1CCC(Nc2ccccc2Oc2ccc(Cl)cc2Cl)CC1`, `COc1ccc(C(O)(CC(=O)N2CCOCC2)c2ccc(Cl)cc2)cc1OC` (stereo not given) is higher in melting point: 145 to 146 °C for the first, 150 °C for the second.

First: Cc1ccc2c3c(ccc2n1)OC[C@H](CNC[C@H]1CCc2c(c4cc(F)ccc4n2C)C1)O3
Second: CCNC(=O)c1ccc(F)c2c1CC(N(CCCc1c[nH]c3ccc(F)cc13)C1CCC1)CO2 (stereo not given)
The melting point of the first is lower: 127 to 129 °C for the first, 130 °C for the second.

First: Cn1c(CO)ncc(OCc2ccccc2)c1=O
Second: ClCc1ccc(OCc2ccccc2)cc1
The melting point of the first is higher: 83 to 84 °C for the first, 74 to 76 °C for the second.

First: COC(=O)[C@@H]1Cc2cc(OC)c(O)cc2C(=O)N1
Second: CNC(=O)N1N=C(c2ccc(N)cc2)c2cc(OC)ccc2CC1C (stereo not given)
The melting point of the first is higher: 280 to 285 °C for the first, 190 to 191 °C for the second.

First: N#Cc1cnc2cnc(F)cc2c1Nc1ccc(Oc2ccccc2)cc1
Second: CC(=O)Nc1ccc(Oc2ncc(Cl)cn2)cc1
The melting point of the first is higher: 211 to 213 °C for the first, 202 °C for the second.

First: CC1(C)OC(=O)Nc2ccc(-c3ccc(F)c(C#N)c3)cc21
Second: CCC#CC1(C(F)(F)F)OC(=O)Nc2ccc(OC)cc21 (stereo not given)
The melting point of the first is higher: 255 to 256 °C for the first, 161 to 162 °C for the second.

First: CCCCOc1cccc2oc(-c3ccccc3)cc(=O)c12
Second: CC(C)Oc1ccn2nc(-c3ccccc3)c(-c3ccc(=O)n(C(C)C)n3)c2c1
The melting point of the first is lower: 96 to 97 °C for the first, 162 to 163 °C for the second.

Compared with `CCN(CC)CCn1c(=Nc2ccccc2)sc2ncccc2c1=O`, `CCn1c(SC)cc2ccccc2c1=O` is higher in melting point: 61 to 62 °C for the first, 80 to 82 °C for the second.

First: Cc1c([N+](=O)[O-])ccc2[nH]ccc12
Second: Nc1cc2[nH]c(=O)ccc2cn1
The melting point of the first is lower: 179 to 180 °C for the first, greater than 275 °C for the second.

First: O=C1NCCN1C1CCN(CC(O)COc2cccnc2Cl)CC1 (stereo not given)
Second: CN(C)C(=O)c1ccc(N2CCN(Cc3cnc4c(c3)NC(=O)[C@@H]3CCCN43)CC2)cc1
The melting point of the first is higher: 163 to 166 °C for the first, 99.2 °C for the second.

Compared with `Clc1ncnc2ccccc12`, `c1ccc2c(c1)CC(Nc1ncnc3nc[nH]c13)C2` is higher in melting point: 83 °C for the first, 300 °C for the second.

Compared with `CCOC(=O)CNC(=O)N1CS(=O)c2c1cc(C(F)(F)F)cc2[N+](=O)[O-]` (stereo not given), `CCOC(=O)/C=C/c1ccc(OCCOC)cc1Oc1cc(C(F)(F)F)ccc1[N+](=O)[O-]` is lower in melting point: 150 °C for the first, 108 to 110 °C for the second.

`NC(=O)C1CCN(c2cccc3c2OCCO3)CC1` and `Cc1ccc2c(c1)N=C(N1CCC(C)CC1)c1cccc3c1N2CC3` cannot be ordered by melting point: 194 °C for the first, 194 to 196 °C for the second.

First: CN(C)CCCN1N=C2C(=Cc3ccccc3)CS(=O)(=O)CC2C1c1ccccc1 (stereo not given)
Second: Cc1nc(N(C)c2ccccc2)n2ncc(C(=O)c3ccccc3)c2n1
The melting point of the first is higher: 127 to 129 °C for the first, 121 °C for the second.

Compared with `CC1CCC(C(C)C)C(OC(=O)C2C(=O)N(Cc3ccc(Br)cc3F)C(=O)c3cccn32)C1` (stereo not given), `Cc1cccc(NC(=O)Nc2cccc3c2C2CC(=O)CCN2C3=O)n1` (stereo not given) is higher in melting point: 98 to 99 °C for the first, 226 to 228 °C for the second.

First: CCOC(=O)Cc1nc(-c2ccc(Cl)cc2)oc1-c1ccsc1
Second: CCCSc1cccc(-c2nc(=O)c3ccccc3s2)n1
The melting point of the first is higher: 127 to 128 °C for the first, 124 to 125 °C for the second.

First: O=C(O)CNC(=O)CC1=C(n2nc(-c3c(-c4ccccc4)nn4ccccc34)ccc2=O)CCCC1
Second: c1ccc(-c2cn3ccccc3n2)cc1
The melting point of the first is higher: 190 to 192 °C for the first, 135 to 137 °C for the second.

Compared with `Fc1ccc(Cn2c(N3CCC(Nc4nc5ccccc5n4Cc4ccccc4)CC3)nc3ccccc32)cc1`, `Cc1ccccc1-c1ccc(C(=O)N2Cc3ccc(C(=O)NCc4cccc(N)c4)n3Cc3ccccc32)cc1C` is lower in melting point: 164 °C for the first, 105 to 115 °C for the second.

Compared with `CCCCCCCCN1CC=C(c2c[nH]c(-c3ccc(F)cc3)c2-c2ccncc2)CC1`, `CC(=O)Oc1cc(C)ccc1C1CCN(CCCCNC(=O)c2ccc(NC(=O)c3ccc(Cl)cc3)cc2)CC1` is higher in melting point: 173 to 175 °C for the first, 210 °C for the second.

First: Cc1ccc2cc(C3=NCCS3)[nH]c2c1NS(=O)(=O)c1cccs1
Second: CS(=O)(=O)c1ccc(-c2c(-c3ccccc3)nc3n2CCS3)cc1
The melting point of the first is higher: 183 to 184 °C for the first, 177 to 179 °C for the second.

First: O=c1[nH]c2c(cc1-c1nnc(C3CC3)o1)CN(Cc1ccccc1)CC2
Second: ClCc1nnc2n1-c1sc(Cl)cc1C(c1ccccc1Cl)=NC2
The melting point of the first is higher: 212 to 214 °C for the first, 101 to 103 °C for the second.

First: Cc1ccc(NC(=O)c2cnn3c(C(F)(F)F)cc(-c4ccc(C(F)(F)F)cc4)nc23)cc1S(N)(=O)=O
Second: Cc1nc(NC(=O)c2cnn3c(C(F)F)cc(-c4ccc(C(F)(F)F)cc4)nc23)sc1S(=O)(=O)NC(C)(C)CO
The melting point of the first is higher: 297 °C for the first, 268 °C for the second.

First: CCN(CC)C(=O)C(=NO)c1c[nH]c2c1ccc1c3ccccc3[nH]c12
Second: O=C(O)C1Sc2ccccc2-c2[nH]c3ccccc3c21 (stereo not given)
The melting point of the first is higher: 268 to 269 °C for the first, 142 °C for the second.

First: O=C(NN=Cc1cc(Cl)cc(Cl)c1O)c1cccc(OC(F)(F)F)c1
Second: CNC(=O)C(=NOC)c1cc(C)c(C)cc1C(ON)=C(C)c1cccc(C(F)(F)F)c1
The melting point of the first is higher: 180 to 182 °C for the first, 129 to 134 °C for the second.

First: Cc1cc(N=Nc2ccccn2)cc(C)c1-c1ccc(-c2c(C)cc(N=Nc3ccccn3)cc2C)o1
Second: CNc1nc(-c2cccc(C#Cc3ccccc3)c2)c2cc(OC)c(OC)cc2n1
The melting point of the first is higher: 206 to 207 °C for the first, 102 to 104 °C for the second.

First: CN(C)C(=O)c1cccc(C(=O)Nc2cccc3cc(Br)cnc23)c1
Second: CC(C)c1cccc2cc3ccccc3cc12
The melting point of the first is higher: 157 °C for the first, 36 to 36.5 °C for the second.

Compared with `COC(=O)C1Cc2c([nH]c3ccccc23)C(c2ccc3c(c2)OCO3)N1C(=O)CCl` (stereo not given), `O=C1Nc2ccccc2C1(O)c1ccc2c(c1)OCO2` (stereo not given) is lower in melting point: 207 to 208 °C for the first, 177 to 180 °C for the second.

First: O=C1CCC(N2Cc3c(OCc4ccc(CN5CCN(C(=O)CCCCC6SCC7NC(=O)NC76)CC5)cc4)cccc3C2=O)C(=O)N1 (stereo not given)
Second: CN1CCN(Cc2ccc(NC(=O)c3nsc4cc(Oc5ccnc(N)n5)ccc34)cc2C(F)(F)F)CC1
The melting point of the first is lower: 168 to 170 °C for the first, 215 to 217 °C for the second.

Compared with `CCCCN1C(=O)NC(=C(C)C)C1=O`, `CC(C)(S)CN1C(=O)NC(=O)C1=O` is higher in melting point: 130 °C for the first, 168 to 170 °C for the second.

`CC1(C)Oc2ccc(-c3nnnn3CCCC(=O)O)cc2[C@@H](Oc2ccc(O)nn2)[C@]1(C)O` and `Cc1c(CCC(=O)O)oc2cccc(O)c12` cannot be ordered by melting point: 116 to 126 °C for the first, 114 to 117 °C for the second.

Compared with `CC1(N)CN=CC=C1N` (stereo not given), `CC(N)c1c[nH]c(-c2ccccc2)n1` (stereo not given) is lower in melting point: 163 to 165 °C for the first, 30 °C for the second.

First: O=NN(CCCl)C(=O)NC1(C(=O)Nc2nncs2)CCCC1
Second: CC1(CC(=O)O)CCCC1=O (stereo not given)
The melting point of the first is higher: 160 °C for the first, 70 to 72 °C for the second.

First: Cc1c(C#N)c(-c2ccc(C#N)cc2)c(C)n1Cc1ccc(Cl)c(CO)c1
Second: Fc1ccc(Nc2ncnc3[nH]c(-c4ccc(CCl)cc4)cc23)cc1Cl
The melting point of the first is lower: 189 °C for the first, greater than 300 °C for the second.

Compared with `COC(=O)CCCC=C1SC(=S)N(N=c2sc3ccccc3s2)C1=O`, `CCOc1ccc(-c2nc(CCC(O)c3ccccc3OC)cs2)cc1OCC` (stereo not given) is lower in melting point: 210 °C for the first, 78.2 to 79 °C for the second.

First: N#Cc1c(F)ccc(O)c1F
Second: N#Cc1c(N)ccc2cc(Cl)cnc12
The melting point of the first is lower: 119 to 121 °C for the first, 246 °C for the second.

Compared with `CC(C)c1ccc(C(=O)C2=C(O)C(=O)N(c3ncc(S(=O)(=O)c4ccc([N+](=O)[O-])cc4)s3)C2c2ccc(C(F)(F)F)cc2)cc1` (stereo not given), `O=C(c1ccc(Cl)cc1)P1(=O)Oc2ccccc2-c2ccccc21` (stereo not given) is lower in melting point: 300 to 302 °C for the first, 125 to 131 °C for the second.

First: CCn1ncc2c1ncc1c(NC)nc3cc(C)nn3c12
Second: COc1nc(C)cnc1N(C(=O)OCC(C)C)S(=O)(=O)c1cccnc1Cl
The melting point of the first is higher: 254 to 255 °C for the first, 99 to 101 °C for the second.

First: CCOCc1nc2c(N)nc3ccc(OCc4ccccc4)cc3c2n1CC(C)(C)O
Second: COC(=O)c1cc(-c2ccc(OC)c(OC)c2)nc2ccc(Br)cc12
The melting point of the first is higher: 181 to 182 °C for the first, 154 °C for the second.

`CCOC(=O)C(C(=O)OCC)C(N)c1ccc(Cl)cc1C(N)C(C(=O)OCC)C(=O)OCC` (stereo not given) and `CCCCCCOC(=O)C1=C(C)NN=C(CC)C1c1cccc([N+](=O)[O-])c1` (stereo not given) cannot be ordered by melting point: 90 to 92 °C for the first, 92 °C for the second.

Compared with `O=C(Oc1ccccc1)N1Cc2ccccc2C(c2ccccc2Cl)c2ccccc21` (stereo not given), `O=C(CC(=O)c1ccccc1)Nc1ccccc1NC(=O)CC(=O)c1ccccc1` is higher in melting point: 95 to 99 °C for the first, 202 to 204 °C for the second.

Compared with `NC(CO)(CO)CCc1ccc(C(=O)CCCCCc2ccccc2)cc1`, `O=C1NC(=O)c2c1c(-c1ccccc1)cc1[nH]c3ccc(OP(=O)(O)O)cc3c21` is higher in melting point: 118 to 120 °C for the first, 285 to 295 °C for the second.

First: O=C(CF)NC[C@H]1CN(c2ccc(N3CCN(c4ccc([N+](=O)[O-])s4)CC3)c(F)c2)C(=O)O1
Second: COCC1(O)CCN(c2ccc(N3C[C@H](CNC(C)=O)OC3=O)cc2F)CC1
The melting point of the first is higher: 145 to 150 °C for the first, 80 to 82 °C for the second.

Compared with `CC(C)(Cl)C(CO)=NO`, `COc1ccc(-n2c(=O)n(C)c(=O)n(CC(C)(C)C)c2=O)cc1` is higher in melting point: 114 to 115 °C for the first, 134 °C for the second.

First: Cc1nc(Cn2nnnc2-c2cccc(Cl)c2Cl)cs1
Second: CSc1ncc2c(n1)N(Cc1ccc(F)c(F)c1)c1ccccc1-n1nnnc1-2
The melting point of the first is lower: 156 to 158 °C for the first, 281 to 283 °C for the second.

First: CCCn1cc(NC(=O)C(N)c2ccc3c(c2)C(C)(C)CCC3(C)C)cc1C(=O)OC (stereo not given)
Second: CCCn1nnn(-c2cc(OC(C)=O)c(Cl)cc2Cl)c1=O
The melting point of the first is higher: 152 to 153 °C for the first, 91 to 92 °C for the second.

First: CN(C)Cc1cccc(-c2cc3c4c(ccn4C(=O)CNC3)c2)c1
Second: O=C(O)c1cnoc1-c1ccc(Cl)cc1Cl
The melting point of the first is lower: 98 to 100 °C for the first, 122 to 123 °C for the second.
